{"source": "patent US20260216156A1", "about": "“METHODS AND COMPOSITIONS FOR THE TREATMENT OF HEARING DISORDERS” (Gateway Biotechnology, Inc., priority 2023, published 2026)", "key": {"[1]": {"system": "mice suffering from noise induced tinnitus", "experiment": "Sound-based avoidance detection (SBAD), Go trials", "assay_type": "in vivo", "procedure": "Using a shuttle box divided into two compartments, mice were trained to cross from side to side with sound cues in the “Go” trials and remain still in the absence of sound in the “No-Go” trials for 15 days. […] The sound cues were randomly played as white noise or narrow-band noise at 5, 10, 16, 20, and 32 kHz with sound intensities randomly at 75, 80, or 85 dB. […] Additionally, a hurdle was added on training 11 to reinforce the training. After the 15th training day, mice were tested for 3 days to obtain a baseline score to be compared after noise exposure, as well as retraining for 3 days. Following the successful completion of training so that mice reached a high percentage of success in the trials, the mice were exposed to a noise-induced trauma for tinnitus. To ensure that the mice still have their hearing, one ear was protected with an ear plug, while the other ear was exposed to the noise. The mice were placed in a sound booth where they were exposed to 120 dB broadband noise at 4-25 kHz for 2-4 hours. Following the noise exposure, the mice were housed for one month, and then tested to see if they have developed tinnitus. In these testing periods, the mice were tested for three days in the shuttle boxes, where they underwent the Go and No-Go trials, however in the No-Go trials the mice were not shocked, as it is expected that mice with tinnitus would cross compartments in the absence of a sound cue. The mice were continued to be shocked in the Go trials in order to ensure that they have retained their hearing and can hear the sound cues. […] To insure there is a significant difference in the No-Go trial scores, chi-square tests were completed comparing the post-noise exposure tests to the baseline tests. However, if tinnitus is not present in the mice, tests were done after waiting one more month, and another if needed. Mice received dosages of NMDP initially via intraperitoneal injection (i.p.). The Go and No-Go scores for the tests were compared using chi-square tests in Social Science Statistics. […]"}, "[2]": {"experiment": "Pharmacokinetics after intranasal administration, blood samples, NMDP by HPLC", "assay_type": "in vivo"}, "[3]": {"conditions": "cited from earlier work"}, "[4]": {"conditions": "cited from earlier work; for Bioavailability outside of the central nervous system: humans"}, "[5]": {"experiment": "Ciliotoxicity of microemulsion formulation", "conditions": "microemulsion: 8% Labrafil M 1944CS, 30% Cremophor RH 40/ethanol (3:1) and water"}, "[6]": {"experiment": "Microemulsion formulation: NMDP solubility and droplet size", "assay_type": "physicochemical", "conditions": "aqueous with cosolvent or surfactant or cyclodextrin, 8% Labrafil M 1944CS, 30% Cremophor RH 40/ethanol (3:1) and water"}, "[7]": {"system": "mice suffering from noise induced tinnitus", "experiment": "Sound-based avoidance detection (SBAD), No-Go trials", "assay_type": "in vivo", "conditions": "for No-Go trial correct rate: tinnitus mice", "procedure": "Using a shuttle box divided into two compartments, mice were trained to cross from side to side with sound cues in the “Go” trials and remain still in the absence of sound in the “No-Go” trials for 15 days. […] The sound cues were randomly played as white noise or narrow-band noise at 5, 10, 16, 20, and 32 kHz with sound intensities randomly at 75, 80, or 85 dB. […] Additionally, a hurdle was added on training 11 to reinforce the training. After the 15th training day, mice were tested for 3 days to obtain a baseline score to be compared after noise exposure, as well as retraining for 3 days. Following the successful completion of training so that mice reached a high percentage of success in the trials, the mice were exposed to a noise-induced trauma for tinnitus. To ensure that the mice still have their hearing, one ear was protected with an ear plug, while the other ear was exposed to the noise. The mice were placed in a sound booth where they were exposed to 120 dB broadband noise at 4-25 kHz for 2-4 hours. Following the noise exposure, the mice were housed for one month, and then tested to see if they have developed tinnitus. In these testing periods, the mice were tested for three days in the shuttle boxes, where they underwent the Go and No-Go trials, however in the No-Go trials the mice were not shocked, as it is expected that mice with tinnitus would cross compartments in the absence of a sound cue. The mice were continued to be shocked in the Go trials in order to ensure that they have retained their hearing and can hear the sound cues. […] To insure there is a significant difference in the No-Go trial scores, chi-square tests were completed comparing the post-noise exposure tests to the baseline tests. However, if tinnitus is not present in the mice, tests were done after waiting one more month, and another if needed. Mice received dosages of NMDP initially via intraperitoneal injection (i.p.). The Go and No-Go scores for the tests were compared using chi-square tests in Social Science Statistics. […] Following this conclusion, the mice were tested accordingly to determine if their No-Go scores could be improved by different drug doses and combinations."}, "[8]": {"conditions": "after feeding to rats; cited from earlier work"}, "[9]": {"conditions": "anesthetized rats, cited from earlier work"}}, "note": "Where two headings read alike, the source gives them in different places.", "data": [{"molecule": "COCCOC(=O)C1=C(C)NC(C)=C(C(=O)OC(C)C)C1c1cccc([N+](=O)[O-])c1", "note": "(centres unmarked) [NMDP, nimodipine]", "values": [{"measurement": "Go trial correct rate", "setting": "[1]; 10 mg/kg i.p.", "value": "~100", "unit": "% correct"}, {"measurement": "Go trial correct rate", "setting": "[1]; 30 mg/kg i.p.", "value": "~100", "unit": "% correct"}, {"measurement": "Go scores: effect on ability to hear the sounds presented", "setting": "[1]; i.p.", "value": "did not have an effect"}, {"measurement": "pharmacokinetics, intranasal versus intravenous", "setting": "[2]; Example 1: carrier, citrate buffer, benzalkonium chloride, water, about 50 mg/mL, 50 μL per nasal cavity", "value": "comparable to that of intravenously administered NMDP"}, {"measurement": "pharmacokinetics, intranasal versus intravenous", "setting": "[2]; Example 2: carriers, non-aqueous solvent, surfactant, about 50 mg/mL, 50 μL per nasal cavity", "value": "comparable to that of intravenously administered NMDP"}, {"measurement": "pharmacokinetics, intranasal versus intravenous", "setting": "[2]; Example 3: mPEG350, PEG400, water, no non-ionic surfactant, about 100 mg/ml, 50 μL per nasal cavity", "value": "comparable to that of intravenously administered NMDP"}, {"measurement": "pharmacokinetics, intranasal versus intravenous", "setting": "[2]; Example 4: mPEG350, PEG400, water, ethanol, no non-ionic surfactant, about 100 mg/mL, 50 μL per nasal cavity", "value": "comparable to that of intravenously administered NMDP"}, {"measurement": "pharmacokinetics, intranasal versus intravenous", "setting": "[2]; Example 7: six volunteer subjects with tinnitus, nasal spray of Example 5, 50 μL per nare, about 20 mg", "value": "comparable to that of intravenously administered NMDP"}, {"measurement": "pharmacokinetics, intranasal versus intravenous", "setting": "[2]; Example 8: vesicular composition (phospholipid, C2-C4 alcohols, water), about 200 mg/mL, 50 μL per nasal cavity", "value": "comparable to that of intravenously administered NMDP"}, {"measurement": "bioavailability", "setting": "[2]; human, plasma, inhaled or intranasal, microemulsion, single intranasal administration, 2 mg/kg, read-out: absolute bioavailability", "value": "~32", "unit": "%"}, {"measurement": "time of plasma concentration peak", "setting": "[2]; microemulsion, single intranasal administration, 2 mg/kg", "value": 1, "unit": "h"}, {"measurement": "Water solubility", "setting": "[3]", "value": 12, "unit": "µg/mL"}, {"measurement": "water solubility (in words)", "setting": "[3]", "value": "poor water solubility"}, {"measurement": "solubility in ethanol", "setting": "[3]; ethanol", "value": "freely soluble"}, {"measurement": "share of NMDP reaching the brain", "setting": "[4]; due to high affinity binding of plasma proteins", "value": 5, "unit": "%"}, {"measurement": "Bioavailability outside of the central nervous system", "setting": "[4]; intravenous administration", "value": 100, "unit": "%"}, {"measurement": "Bioavailability outside of the central nervous system", "setting": "[4]; oral administration, extensive first-pass metabolism", "value": "3-30%"}, {"measurement": "ciliotoxicity", "setting": "[5]", "value": "no ciliotoxicity"}, {"measurement": "solubility", "setting": "[6]", "value": "≤ 6400", "unit": "µg/mL"}, {"measurement": "No-Go scores: behavioral changes", "setting": "[7]; mice, 10, 30, and 50 mg/kg i.p.", "value": "did not cause any behavioral changes"}, {"measurement": "No-Go trial correct rate", "setting": "[7]; 30 mg/kg i.p.", "value": "~100", "unit": "% correct"}, {"measurement": "No-Go trial correct rate", "setting": "[7]; 50 mg/kg i.p.", "value": "~100", "unit": "% correct"}, {"measurement": "No-Go trial correct rate", "setting": "[7]; intranasal formulation of Example 15 F1, 0.9 mg/mouse (or 30 mg/kg)", "value": "~100", "unit": "% correct"}]}, {"molecule": "Phaseolus vulgaris hemagglutinin", "values": [{"measurement": "oral bioavailability", "setting": "[8]", "value": "more than 10%"}]}, {"molecule": "human growth hormone: human growth hormone, nasal bioavailability modestly increased by N-acetyl-L-cysteine", "values": [{"measurement": "nasal bioavailability", "setting": "[9]; with N-acetyl-L-cysteine", "value": 12.2, "unit": "%"}, {"measurement": "nasal bioavailability", "setting": "[9]; without N-acetyl-L-cysteine", "value": 7.5, "unit": "%"}]}]}
